From patent US20230277632A1, “MODIFIED PlySs2 LYSINS AND ANTIBIOTIC COMBINATIONS FOR USE AGAINST GRAM-POSITIVE BACTERIA” (ContraFect Corporation, priority 2020, published 2023)
In brackets after ≈: the same amount, converted by molar mass. Several values for one entry are separate records, joined by “and”; a condition that tells them apart may be missing. Identical values can stand only once.

Columns and labels:
S. aureus isolates [1] = assay: MIC determination (broth microdilution) against 8 S. aureus isolates; type: cell-based; settings: CAMHB, unit assumed
Experimental: Suitable methods for assessing the activity of a modified lysin polypeptide as disclosed herein are well known in the art and described in the examples. […] For example, MIC values for a modified lysin polypeptide may be determined against e.g., laboratory Staphylococcus aureus strains, in e.g., Mueller-Hinton broth or Mueller-Hinton broth supplemented with serum, such as horse serum.
The pp296 MICs were determined based on (1) cation-adjusted Mueller-Hinton Broth with 25% horse serum and 0.5 mM DTT (caMHB-HSD); (2) human serum (100% serum); and (3) ICR mice (100% serum). Vancomycin and daptomycin MICs of the isolate strains were determined in accordance with the broth microdilution method as outlined by CLSI. Results of the MIC determination are shown below in Table 2. The bacterial isolates were frozen at −80° C. in skim milk.

S. aureus = assay: pp296 dose fractionation study, neutropenic murine thigh infection model; type: in vivo; settings: vancomycin 3 mg/kg Q12h SC alone, 24 h
Experimental: Each of the pp296 TDDs was fractionated into three regimens, i.e., one-third of the entire dose was administered via IV three times (q8h); one-half of the entire does was administered via IV two times (q12h), or the entire dose was administered via IV once daily over a 24-hour period, for a total of three groups per each TDD.
Untreated control mice (n=3/group) were sacrificed just prior to antibiotic administration, as well as 24 hours later. Animals sacrificed prior to antibiotic administration served as 0-hour control animals, representing initial bacterial burden. The 24-hour control animals received sterile normal saline in the same volume and schedule as the most frequent active drug regimen. […] After the 24-hour treatment period, all animals were euthanized and thighs were cultured quantitatively as described above. The change in bacterial density was calculated for each of the dosing regimen. Comparisons were made between the different regimens of the same total daily dose on bacterial burdens at 24 hours using one-way Analysis of Variance (ANOVA) test followed by Tukey's test where the P value was 0.05.

S. aureus isolates [2] = assay: In vivo efficacy of vancomycin in combination with pp296, neutropenic murine thigh infection model; settings: 24 h; for Replicate Log10 CFU/thigh data: listed as VAN
Experimental: (§1) Study animals: Specific pathogen-free female ICR mice (average body weight 23 grams) were provided food and water ad libitum and maintained and used in accordance with National Research Council recommendations. Animals were allowed a 48-hour post-delivery acclimation period before every experiment. Mice were rendered transiently neutropenic by injection of cyclophosphamide via intraperitoneal (IP) route at a dose of 150 mg/kg of body weight at four days before bacterial inoculation and 100 mg/kg of body weight at one day before bacterial inoculation.
(§2) Neutropenic Thigh Infection Model: Two transfers of the bacterial isolates were performed onto trypticase soy agar plates with 5% sheep blood and placed into an incubator at 37° C. for approximately 24 hours. After an 18-24 hour incubation of the second transfer, a suspension of approximately 10^7 CFU/mL was made for inoculation. Final bacterial inoculum concentrations were confirmed by serial dilution and plating techniques. Thigh infection with the test isolate was produced by intramuscular injection of 0.1 mL of the bacterial inoculum into each thigh of the mice. Antimicrobial therapy was initiated 2 hours after bacterial inoculation, as detailed below. […]
Untreated control mice (n=3) were sacrificed just prior to antibiotic administration and 24 hours after bacterial inoculation. Animals sacrificed prior to antibiotic initiation served as 0-hour control animals, representing initial bacterial burden. […] Treatment mice (n=3/group) were sacrificed at the end of the 24 hour treatment period. After sacrifice, both thighs for each mouse were homogenized in normal saline. Serial dilutions were plated on Trypticase soy agar with 5% sheep blood and incubated for 18 to 20 hours at 37.0 to determine the CFU. Efficacy was calculated as the change in bacterial density obtained in treated mice after 24 hours compared with the numbers in the 0-hour control animals. Bacterial density represents the average CFU determined from 3 mice, each contributing 2 thighs.

S. aureus isolates [3] = assay: Vancomycin dose-ranging, neutropenic murine thigh infection model; type: in vivo; settings: 24 h
Experimental: as §1
as §2, with “mice.” for “mice. Antimicrobial therapy was initiated 2 hours after bacterial inoculation, as detailed below.”
Two hours post-bacterial inoculation, one group of mice (n=3) was sacrificed to serve as a 0 hour control, representing initial bacterial burden in the thigh, wherein bacterial burden is determined as the average CFU from 6 thighs, i.e., 2 thighs per mouse. […]

SMILES: CN[C@H](CC(C)C)C(=O)N[C@H]1C(=O)N[C@@H](CC(N)=O)C(=O)N[C@H]2C(=O)N[C@H]3C(=O)N[C@H](C(=O)N[C@H](C(=O)O)c4cc(O)cc(O)c4-c4cc3ccc4O)[C@H](O)c3ccc(c(Cl)c3)Oc3cc2cc(c3O[C@@H]2O[C@H](CO)[C@@H](O)[C@H](O)[C@H]2O[C@H]2C[C@](C)(N)[C@H](O)[C@H](C)O2)Oc2ccc(cc2Cl)[C@H]1O [Vancomycin, vancomycin]
- MIC Vancomycin (CAMHB) (S. aureus isolates [1]; ATCC 29213 MSSA): 1 µg/mL (≈ 0.69 µM)
- MIC Vancomycin (CAMHB) (S. aureus isolates [1]; CAIRD426 MRSA): 1 µg/mL (≈ 0.69 µM)
- MIC Vancomycin (CAMHB) (S. aureus isolates [1]; HPV107 MRSA): 1 µg/mL (≈ 0.69 µM)
- MIC Vancomycin (CAMHB) (S. aureus isolates [1]; JMI227 MRSA): 1 µg/mL (≈ 0.69 µM)
- MIC Vancomycin (CAMHB) (S. aureus isolates [1]; JMI4789 MRSA): 1 µg/mL (≈ 0.69 µM)
- MIC Vancomycin (CAMHB) (S. aureus isolates [1]; NRS100 (COL) MRSA): 1 µg/mL (≈ 0.69 µM)
- MIC Vancomycin (CAMHB) (S. aureus isolates [1]; NRS123 (MW2) MRSA): 1 µg/mL (≈ 0.69 µM)
- MIC Vancomycin (CAMHB) (S. aureus isolates [1]; NRS271 MRSA/LRSA): 1 µg/mL (≈ 0.69 µM)
- bacterial burden vs 0-hour control mice (S. aureus): 0.41±0.62 log10 CFU/thigh
- Replicate Log10 CFU/thigh data (S. aureus isolates [2]; ATCC2921, VAN 3 mg/kg alone): 4.59 Log10 CFU/thigh and 4.96 Log10 CFU/thigh and 7.87 Log10 CFU/thigh and 5.18 Log10 CFU/thigh and 7.18 Log10 CFU/thigh and 6.03 Log10 CFU/thigh
- Replicate Log10 CFU/thigh data (S. aureus isolates [2]; CAIRD426, VAN 1.5 mg/kg alone): 6.89 Log10 CFU/thigh and 6.51 Log10 CFU/thigh and 7.97 Log10 CFU/thigh and 8.04 Log10 CFU/thigh
- Replicate Log10 CFU/thigh data (S. aureus isolates [2]; CAIRD426, VAN 3 mg/kg alone, Run #1): 4.81 Log10 CFU/thigh and 7.53 Log10 CFU/thigh and 6.53 Log10 CFU/thigh
- Replicate Log10 CFU/thigh data (S. aureus isolates [2]; CAIRD426, VAN 3 mg/kg alone, Run #2): 7.82 Log10 CFU/thigh and 8.21 Log10 CFU/thigh and 7.74 Log10 CFU/thigh and 7.40 Log10 CFU/thigh and 7.47 Log10 CFU/thigh and 7.20 Log10 CFU/thigh
- Replicate Log10 CFU/thigh data (S. aureus isolates [2]; HPV107, VAN 1.5 mg/kg alone): 8.44 Log10 CFU/thigh and 8.20 Log10 CFU/thigh and 8.00 Log10 CFU/thigh and 7.87 Log10 CFU/thigh and 8.32 Log10 CFU/thigh
- Replicate Log10 CFU/thigh data (S. aureus isolates [2]; HPV107, VAN 3 mg/kg alone, Run #1): 7.50 Log10 CFU/thigh and 7.81 Log10 CFU/thigh and 7.24 Log10 CFU/thigh and 7.40 Log10 CFU/thigh and 7.36 Log10 CFU/thigh and 6.51 Log10 CFU/thigh
- Replicate Log10 CFU/thigh data (S. aureus isolates [2]; HPV107, VAN 3 mg/kg alone, Run #2): 7.49 Log10 CFU/thigh and 7.73 Log10 CFU/thigh and 5.45 Log10 CFU/thigh
- Replicate Log10 CFU/thigh data (S. aureus isolates [2]; JMI227, VAN 3 mg/kg alone): 7.50 Log10 CFU/thigh and 6.17 Log10 CFU/thigh and 8.04 Log10 CFU/thigh and 8.21 Log10 CFU/thigh and 8.47 Log10 CFU/thigh and 7.51 Log10 CFU/thigh
- Replicate Log10 CFU/thigh data (S. aureus isolates [2]; JMI4789, VAN 3 mg/kg alone): 8.41 Log10 CFU/thigh and 8.01 Log10 CFU/thigh and 6.93 Log10 CFU/thigh (2×) and 4.92 Log10 CFU/thigh
- Replicate Log10 CFU/thigh data (S. aureus isolates [2]; NRS100, VAN 1.5 mg/kg alone): 6.30 Log10 CFU/thigh and 4.89 Log10 CFU/thigh and 4.85 Log10 CFU/thigh and 4.30 Log10 CFU/thigh and 4.69 Log10 CFU/thigh and 6.73 Log10 CFU/thigh
- Replicate Log10 CFU/thigh data (S. aureus isolates [2]; NRS100, VAN 3 mg/kg alone, Run #1): 4.58 Log10 CFU/thigh (2×) and 4.90 Log10 CFU/thigh and 4.89 Log10 CFU/thigh and 4.48 Log10 CFU/thigh and 4.56 Log10 CFU/thigh
- Replicate Log10 CFU/thigh data (S. aureus isolates [2]; NRS100, VAN 3 mg/kg alone, Run #2): 4.75 Log10 CFU/thigh and 6.89 Log10 CFU/thigh and 4.70 Log10 CFU/thigh and 4.58 Log10 CFU/thigh and 4.83 Log10 CFU/thigh and 6.46 Log10 CFU/thigh
- Replicate Log10 CFU/thigh data (S. aureus isolates [2]; NRS123, VAN 3 mg/kg alone): 7.17 Log10 CFU/thigh and 7.02 Log10 CFU/thigh and 7.77 Log10 CFU/thigh and 8.38 Log10 CFU/thigh and 8.32 Log10 CFU/thigh and 8.01 Log10 CFU/thigh
- Replicate Log10 CFU/thigh data (S. aureus isolates [2]; NRS217, VAN 1.5 mg/kg alone): 7.60 Log10 CFU/thigh and 8.28 Log10 CFU/thigh and 8.26 Log10 CFU/thigh and 7.90 Log10 CFU/thigh and 6.43 Log10 CFU/thigh and 7.61 Log10 CFU/thigh
- Replicate Log10 CFU/thigh data (S. aureus isolates [2]; NRS217, VAN 3 mg/kg alone, Run #1): 6.66 Log10 CFU/thigh and 6.70 Log10 CFU/thigh and 7.23 Log10 CFU/thigh and 6.68 Log10 CFU/thigh and 7.60 Log10 CFU/thigh and 6.55 Log10 CFU/thigh
- Replicate Log10 CFU/thigh data (S. aureus isolates [2]; NRS217, VAN 3 mg/kg alone, Run #2): 7.06 Log10 CFU/thigh and 7.38 Log10 CFU/thigh and 5.26 Log10 CFU/thigh and 4.73 Log10 CFU/thigh and 6.82 Log10 CFU/thigh
- Replicate Log10 CFU/thigh data (S. aureus isolates [2]; isolate HPV107, VAN 5 mg/kg q12h SC alone): 4.73 Log10 CFU/thigh and 8.28 Log10 CFU/thigh and 4.75 Log10 CFU/thigh and 4.88 Log10 CFU/thigh
- Replicate Log10 CFU/thigh data (S. aureus isolates [2]; isolate NRS100, VAN 5 mg/kg q12h SC alone): 4.68 Log10 CFU/thigh (2×) and 4.78 Log10 CFU/thigh (2×) and 4.56 Log10 CFU/thigh and 4.73 Log10 CFU/thigh
- Replicate Log10 CFU/thigh data (S. aureus isolates [2]; isolate NRS217, VAN 5 mg/kg q12h SC alone): 4.64 Log10 CFU/thigh and 6.13 Log10 CFU/thigh and 4.76 Log10 CFU/thigh and 4.56 Log10 CFU/thigh and 4.75 Log10 CFU/thigh
- average bacterial growth vs starting inoculum (S. aureus isolates [2]; vancomycin 1.5 mg/kg Q12h SC alone, 4 isolates): 2.75±0.52 log10 CFU/thigh
- average bacterial reduction vs starting inoculum (S. aureus isolates [2]; vancomycin 5 mg/kg q12h SC alone, 4 isolates): −0.38±1.10 log10 CFU/thigh
- bacterial burden reduction vs 0-hour controls (S. aureus isolates [3]; upper end of dose-response, vancomycin 3.125-25 mg/kg q12h SC, all isolates): −1.15±0.40 log10 CFU/thigh
- mean bacterial burden change vs 0-hour controls (S. aureus isolates [3]; vancomycin 3.125 mg/kg q12h SC, mean of 8 isolates): −0.05±1.16 log10 CFU/thigh
